In paper PMC6779273, “Emodepside has sex-dependent immobilizing effects on adult Brugia malayi due to a differentially spliced binding pocket in the RCK1 region of the SLO-1 K channel” (PLoS Pathogens, 2019):

Legend:
[1] = biological target: T1, Bma-SLO-1A (SLO-1 K channel, splice variant A) (Brugia malayi, UniProt A0A0H5S223); experiment: two-electrode voltage clamp, Xenopus laevis oocytes expressing slo-1a (small but detectable outward current); type: cell-based
T1 construct: full-length slo-1a splice variant
Text: two-electrode voltage clamp, Xenopus laevis oocytes expressing slo-1a (small but detectable outward current) on Bma-SLO-1A (SLO-1 K channel, splice variant A) | When we expressed slo-1a, or slo-1a with slo-1f (Fig 4C & 4D), we found much smaller, but still detectable currents.

[2] = biological target: T2, Bma-SLO-1F (SLO-1 K channel, splice variant F) (Brugia malayi, UniProt A0A0J9Y9H3); experiment: two-electrode voltage clamp, Xenopus laevis oocytes expressing slo-1f (activation of outward current); type: cell-based
T2 construct: full-length slo-1f splice variant

Which results are given for CC(C)C[C@H]1C(=O)O[C@H](Cc2ccc(N3CCOCC3)cc2)C(=O)N(C)[C@@H](CC(C)C)C(=O)O[C@H](C)C(=O)N(C)[C@@H](CC(C)C)C(=O)O[C@H](Cc2ccc(N3CCOCC3)cc2)C(=O)N(C)[C@@H](CC(C)C)C(=O)O[C@H](C)C(=O)N1C [emodepside]?
EC50 [1]: > 30 µM; EC50 [2]: 5 ± 1 µM
